This is an account of results in US9072762B2, “Natural composition to decrease effects of a high fat diet” (Board of Supervisors of Louisiana State University And …, priority 2009, dated 2015).

Molecules are shown by their SMILES.

The format of data set [1] is in vivo, rat. The conditions noted are these: for Oral bioavailability / absorption: rat, in vivo. The method, then:
Thirty-two normal male SD rats were used in the experiment. Prior to treatment, all rats were fasted overnight. The treated group (n=24) received the RUS extract at a dose of 1 g/kg of body weight (0.1% w/w), and the control group (n=8) received the same volume of water via daily gavage for 3 consecutive days. All rats were given free access to food and water after the gavage. Urine was collected cumulatively for 24 hours on the third day after treatment began.

Data set [2] relates to VEGF. Put plainly: Western blot of HUVEC cell lysates for VEGF expression. Format: cell-based, human. Conditions: 24 hrs, concentrations up to about 40 μg/ml. As for the experimental part:
(§1) The HUVEC assay used human umbilical vein endothelial cells purchased from the American Type Culture Collection (ATCC # CRL-1730, Manassas, Va.). Human umbilical vein endothelial cells (HUVEC) were grown in M199 media containing 20% fetal bovine serum, 30 μg/ml endothelial cell growth supplements, 4 mM L-glutamin, 100 U/ml penicillin, and 100 μg/ml streptomycin. Cells were incubated at 37° C. in a humidified atmosphere of 5% CO2. […] Cells were then lysed with lysis buffer containing 20 mM MOPS, 2 mM EGTA, 5 mM EDTA, 30 mM NaF, 40 mM (3-glycerophosphate, 20 mM sodium pyruvate, 0.5% Triton X-100, and 1 mM sodium orthovanadate with protease inhibitor cocktail (Sigma), and the cell lysates were subjected to protein analysis and western blotting analysis to assess for VEGF (vascular endothelial growth factor), FGF or bFGF (basic fibroblast growth factor), and FLK-1 (a VEGFR2 receptor protein) using the relevant antibodies of VEFG (R&D System), bFGF (Upstate Biotechnology); FLK-1 (Santa Cruz Biotechnology). (See Ma, J. et al., “PTEN regulate angiogenesis through PI3k/AktNEGF signaling pathway in human pancreatic cancer cells,” Mol. Cell Biochem., vol. 331, pp. 161-171 (2009); and Sukhthanjar, M., et al., “A green tea component suppresses posttranslational expression of basic fibroblast growth factor in colorectal cancer. Gastroenterology,” vol. 134, pp. 1972-1980 (2008)). β-Actin was used as a quality control of the assays.
For orientation: In western blotting, separated proteins are transferred to a membrane and probed.

For data set [3], the system named is bFGF. The data set is described as follows: Western blot of HUVEC cell lysates for bFGF expression. Format: cell-based, human. The conditions noted are these: 24 hrs, concentrations up to about 40 μg/ml. As for the experimental part:
as §1

Data set [4] relates to FLK-1 (a VEGFR2 receptor protein). Put plainly: Western blot of HUVEC cell lysates for FLK-1 expression. Format: cell-based, human. Conditions: 24 hrs, concentrations up to about 40 μg/ml. As for the experimental part:
The HUVEC assay used human umbilical vein endothelial cells purchased from the American Type Culture Collection (ATCC # CRL-1730, Manassas, Va.). Human umbilical vein endothelial cells (HUVEC) were grown in M199 media containing 20% fetal bovine serum, 30 μg/ml endothelial cell growth supplements, 4 mM L-glutamin, 100 U/ml penicillin, and 100 μg/ml streptomycin. Cells were incubated at 37° C. in a humidified atmosphere of 5% CO2. […] Cells were then lysed with lysis buffer containing 20 mM MOPS, 2 mM EGTA, 5 mM EDTA, 30 mM NaF, 40 mM (3-glycerophosphate, 20 mM sodium pyruvate, 0.5% Triton X-100, and 1 mM sodium orthovanadate with protease inhibitor cocktail (Sigma), and the cell lysates were subjected to protein analysis and western blotting analysis to assess for VEGF (vascular endothelial growth factor), FGF or bFGF (basic fibroblast growth factor), and FLK-1 (a VEGFR2 receptor protein) using the relevant antibodies of VEFG (R&D System), bFGF (Upstate Biotechnology); FLK-1 (Santa Cruz Biotechnology). (See Ma, J. et al., “PTEN regulate angiogenesis through PI3k/AktNEGF signaling pathway in human pancreatic cancer cells,” Mol. Cell Biochem., vol. 331, pp. 161-171 (2009); and Sukhthanjar, M., et al., “A green tea component suppresses posttranslational expression of basic fibroblast growth factor in colorectal cancer. Gastroenterology,” vol. […]

Where [5] appears, read: rats, 24 hr urine after oral RUS 1.0 g/kg of body weight.

Consider `O=c1oc2c(O)c(O)cc3c(=O)oc4c(O)c(O)cc1c4c23` [ellagic acid], for which, in data set [1], the “Oral bioavailability / absorption” value was “orally bioavailable”. Moreover, in data set [2], the “Expression of VEGF” value was “inhibited the expression of VEGF in a concentration-dependent manner”. Further, the “Expression of bFGF” value in data set [3] is reported as “did not suppress the expression of bFGF”.
Take `O=C(O)c1cc(O)c(O)c(O)c1` [gallic acid]: in data set [1] (setting [5]), the “Unmetabolized compound in the urine” value was found to be 91.7 µg and the “Unmetabolized compound in urine as % of amount orally administered” value is given as “about 4.5%”. In data set [2], the “Expression of VEGF” value is reported as “inhibited the expression of VEGF in a concentration-dependent manner”. Also, in data set [4], the “Expression of FLK-1” value is recorded as “slightly reduced the expression of FLK-1”. Moreover, in data set [3], the “Expression of bFGF” value is recorded as “did not suppress the expression of bFGF”.
On to `C=C1C[C@@]23CC[C@H]4[C@@](C)(CCC[C@@]4(C)C(=O)O[C@@H]4O[C@H](CO)[C@@H](O)[C@H](O)[C@H]4O)[C@@H]2CC[C@]1(O[C@@H]1O[C@H](CO)[C@@H](O)[C@H](O)[C@H]1O)C3` [rubusoside], for which the “Oral bioavailability / absorption” value in data set [1] was “orally bioavailable”. For the same compound, the “Expression of VEGF” value in data set [2] is on record as “did not inhibit the expression of either bFGF or VEGF”. For the same compound, the “Expression of FLK-1” value in data set [4] is “reduced the expression of FLK-1”. Also, in data set [3], the “Expression of bFGF” value is on record as “did not inhibit the expression of either bFGF or VEGF”.
